One test deals with NCI-H460. Put plainly: Inhibition test on cell proliferation (MTT), NCI-H460. It is filed as cell-based, human. Here is the method: (§1) Tumor cells (NCI-H460, BxPC-3, HT-29, HCC-LM3) in the logarithmic growth phase were digested, centrifuged, and the supernatants were removed. Cells were resuspended by adding fresh culture medium, and counted using a cell counting plate. 100 μL of culture medium (containing cells) was added to a 96-well plate according to the standard of 2000 to 6000 cells per well and incubated in an incubator (37° C., 5% CO2) for 24 hours. After the cells were completely adhered to the wall, the test sample and Plinabulin were diluted to different concentrations using fresh culture medium, and 4 wells were set for each concentration. After 72 hours of drug treatment, the culture medium was removed, and 20 μL of MTT at a concentration of 5 mg/mL was added to each well. After 3-4 hours in the incubator, the MTT was discarded, and 100 μL of DMSO was added to each well, and placed in a 96-well plate shaker to completely dissolve the purple formazan. Subsequently, the absorbance (OD value) was detected at a wavelength of 490 nm using a microplate reader. The experiment also required setting up zero-setting wells (blank culture medium, MTT, DMSO). Cell inhibition rate=1−(OD value of drug-dosed group−OD value of zero-setting group)/(OD value of blank group−OD value of zero-setting group)×100%.

A further test deals with BxPC-3. Put plainly: Inhibition test on cell proliferation (MTT), BxPC-3. It is filed as cell-based, human. Conditions: read-out: IC50 (nM) BxPC-3. Here is the method:
as §1

[1] abbreviates: Homo sapiens, NCI-H460, 72 h, 72 hours of drug treatment, MTT, read-out: IC50 (nM) NCI-H460.
Setting [2] is: Homo sapiens, BXPC-3, 72 h, 72 hours of drug treatment, MTT.
Where [3] appears, read: 72 hours of drug treatment, MTT, read-out: IC50 (nM) NCI-H460.
[4] abbreviates: 72 hours of drug treatment, MTT.
The mark [5] stands for this setting: Homo sapiens, NCI-H460, 72 h, read-out: IC50 (nM) NCI-H460, 72 hours of drug treatment, MTT.

Broadly, the IC50 is the concentration that gives 50% inhibition.

Where two headings read alike, the source gives them in different places.

For `CC(C)c1c(/C=c2\[nH]c(=O)/c(=C/c3cccc(C(=O)c4ccc(F)cc4)c3)[nH]c2=O)ncn1CCCN1CCN(C(=O)NC2CCCC2)CC1` [PLN-2-46, (3Z,6Z)-3-(3-(p-fluorobenzoyl)phenyl)methylene-6-((5-isopropyl-1-(3-N-cyclopentylaminocarbonylpiperazinyl)propylimidazol-4-yl)methylene)piperazine-2,5-dione], the concentration for half-maximal inhibition (IC50) in the test on NCI-H460 (setting [1]) is 21.6 ± 0.52 nM; in the test on BxPC-3 (setting [2]), 9.09 ± 0.89 nM.

As for `CC1CN(CCCn2cnc(/C=c3\[nH]c(=O)/c(=C/c4cccc(C(=O)c5ccc(F)cc5)c4)[nH]c3=O)c2C(C)C)CC(C)O1` (centres unmarked) [PLN-2-13, (3Z,6Z)-3-(3-(p-fluorobenzoyl)phenyl)methylene-6-((5-isopropyl-1-((2,6-dimethyl)-3-morpholinyl)propylimidazol-4-yl)methylene)piperazine-2,5-dione], the half-maximal inhibitory concentration (IC50) is 8.2 ± 0.54 nM with NCI-H460 (setting [3]) and 14.9 ± 2.62 nM with BxPC-3 (setting [4]).

With `CCC(=O)N1CCN(CCCn2cnc(/C=c3\[nH]c(=O)/c(=C/c4cccc(C(=O)c5ccc(F)cc5)c4)[nH]c3=O)c2C(C)C)CC1` [PLN-2-31, (3Z,6Z)-3-(3-(p-fluorobenzoyl)phenyl)methylene-6-((5-isopropyl-1-(3-N-propionylpiperazinyl)propylimidazol-4-yl)methylene)piperazine-2,5-dione], the half-maximal inhibitory concentration (IC50) in the test on NCI-H460 (setting [1]) amounted to 6.93 ± 0.96 nM; in the test with BxPC-3 (setting [2]), 2.48 ± 0.57 nM.

As for `CC(C)c1c(/C=c2\[nH]c(=O)/c(=C/c3cccc(C(=O)c4ccc(F)cc4)c3)[nH]c2=O)ncn1CCCN1CCN(C(=O)C2CC2)CC1` [PLN-2-35, (3Z,6Z)-3-(3-(p-fluorobenzoyl)phenyl)methylene-6-((5-isopropyl-1-(3-N-cyclopropanecarbonylpiperazinyl)propylimidazol-4-yl)methylene)piperazine-2,5-dione], the IC50 in the test with NCI-H460 (setting [1]) was determined as 5.28 ± 0.71 nM; in the test on BxPC-3 (setting [2]) it was 2.23 ± 2.2 nM.

As to `CC(C)c1c(/C=c2\[nH]c(=O)/c(=C/c3cccc(C(=O)c4ccc(F)cc4)c3)[nH]c2=O)ncn1CCCN1CCN(C(=O)NC(C)(C)C)CC1` [PLN-2-45, (3Z,6Z)-3-(3-(p-Fluorobenzoyl)phenyl)methylene-6-((5-isopropyl-1-(3-N-tert-butylaminocarbonylpiperazinyl)propylimidazol-4-yl)methylene)piperazine-2,5-dione], the IC50 in the test with NCI-H460 (setting [1]) was determined as 6.43 ± 1.98 nM; in the test with BxPC-3 (setting [2]), 1.79 ± 0.49 nM.

On to `CC1CN(CCCn2cnc(/C=c3\[nH]c(=O)/c(=C/c4cccc(C(=O)c5ccc(F)cc5)c4)[nH]c3=O)c2C(C)C)CC(C)O1` (centres unmarked) [PLN-2-12, (3Z,6Z)-3-(3-(p-fluorobenzoyl)phenyl)methylene-6-((5-isopropyl-1-((2,6-dimethyl)-3-morpholinyl)propylimidazol-4-yl)methylene)piperazine-2,5-dione], for which the concentration for half-maximal inhibition (IC50) in the test with NCI-H460 (setting [3]) is 3.77 ± 0.62 nM; in the test on BxPC-3 (setting [4]), 2.48 ± 2.12 nM.

Consider `CC(C)NC(=O)N1CCN(CCCn2cnc(/C=c3\[nH]c(=O)/c(=C/c4cccc(C(=O)c5ccc(F)cc5)c4)[nH]c3=O)c2C(C)C)CC1` [PLN-2-44, (3Z,6Z)-3-(3-(p-fluorobenzoyl)phenyl)methylene-6-((5-isopropyl-1-(3-N-isopropylaminocarbonylpiperazinyl)propylimidazol-4-yl)methylene)piperazine-2,5-dione], for which the IC50 in the test with NCI-H460 (setting [1]) was found to be 8.68 ± 0.78 nM; with BxPC-3 (setting [2]), 3.84 ± 0.12 nM.

On to `CC(C)=CC(=O)N1CCN(CCCn2cnc(/C=c3\[nH]c(=O)/c(=C/c4cccc(C(=O)c5ccc(F)cc5)c4)[nH]c3=O)c2C(C)C)CC1` [PLN-2-40, (3Z,6Z)-3-(3-(p-fluorobenzoyl)phenyl)methylene-6-((5-isopropyl-1-(3-N-(3,3-dimethyl)acryloylpiperazinyl)propylimidazol-4-yl)methylene)piperazine-2,5-dione], for which the results for the IC50 in the test on NCI-H460 (setting [1]) and with BxPC-3 (setting [2]) were 7.56 ± 0.33 nM and 4.4 ± 3.1 nM, respectively.

In the case of `CC(C)c1c(/C=c2\[nH]c(=O)/c(=C/c3cccc(Oc4ccc(F)cc4)c3)[nH]c2=O)ncn1CCCN1CCN(C)CC1` [PLN-2-22, (3Z,6Z)-3-(3-(p-fluorophenoxy)phenyl)methylene-6-((5-isopropyl-1-(3-N-methylpiperazinyl)propylimidazol-4-yl)methylene)piperazine-2,5-dione], the concentration for half-maximal inhibition (IC50) in the test on NCI-H460 (setting [1]) worked out at 85.7 ± 10.6 nM; with BxPC-3 (setting [2]), 66.2 ± 1.45 nM.

For `CC1CN(CCCn2cnc(/C=c3\[nH]c(=O)/c(=C/c4cccc(C(=O)c5ccc(F)cc5)c4)[nH]c3=O)c2C2CC2)CC(C)O1` (centres unmarked) [PLN-2-14, (3Z,6Z)-3-(3-(p-fluorobenzoyl)phenyl)methylene-6-((5-cyclopropyl-1-((2,6-dimethyl)-3-morpholinyl)propylimidazol-4-yl)methylene)piperazine-2,5-dione], the IC50 in the test with NCI-H460 (setting [1]) was determined as 9.33 ± 0.54 nM; in the test on BxPC-3 (setting [2]) it was 9.33 ± 0.45 nM.

In the case of `CC(C)c1c(/C=c2\[nH]c(=O)/c(=C/c3cc(F)ccc3F)[nH]c2=O)ncn1CCCN1CCNCC1` [PLN-2-20, (3Z,6Z)-3-(2,5-difluorophenyl)methylene-6-((5-isopropyl-1-(3-piperazinyl)propylimidazol-4-yl)methylene)piperazine-2,5-dione], the concentration for half-maximal inhibition (IC50) in the test on NCI-H460 (setting [1]) came out at 147 ± 14.5 nM; with BxPC-3 (setting [2]) it was 91.63 ± 0.62 nM.

With `CC(C)c1c(/C=c2\[nH]c(=O)/c(=C/c3cccc(C(=O)c4ccc(F)cc4)c3)[nH]c2=O)ncn1CCCN1CCN(C(=O)OCc2ccc(B3OC(C)(C)C(C)(C)O3)cc2)CC1` [PLN-2-28, (3Z,6Z)-3-(3-(p-fluorobenzoyl)phenyl)methylene-6-((5-isopropyl-1-(3-N-p-(4,4,5,5-tetramethyl-1,3,2-dioxaborolan-2-yl)benzyloxycarbonylpiperazinyl)propylimidazol-4-yl)methylene)piperazine-2,5-dione], the IC50 came out at 15.4 ± 1.68 nM in the test on NCI-H460 (setting [5]) and 9.22 ± 3.93 nM in the test on BxPC-3 (Homo sapiens, BXPC-3, 72 h).

As to `CC(C)c1c(/C=c2\[nH]c(=O)/c(=C/c3cc(F)ccc3F)[nH]c2=O)ncn1CCCN1CCN(C(=O)OC(C)(C)C)CC1` [PLN-2-48], the figures for the half-maximal inhibitory concentration (IC50) with NCI-H460 (setting [1]) and in the test on BxPC-3 (setting [2]) were 39.2 ± 1.85 nM and 33.1 ± 0.98 nM, respectively.

Regarding `CC(C)c1c(/C=c2\[nH]c(=O)/c(=C/c3cccc(C(=O)c4ccc(F)cc4)c3)[nH]c2=O)ncn1CCCN1CCN(Cc2ccc(B3OC(C)(C)C(C)(C)O3)cc2)CC1` [PLN-2-27, (3Z,6Z)-3-(3-(p-fluorobenzoyl)phenyl)methylene-6-((5-isopropyl-1-(3-N-(4-(4,4,5,5-tetramethyl-1,3,2-dioxaborolan-2-yl))benzylpiperazinyl)propylimidazol-4-yl)methylene)piperazine-2,5-dione], the half-maximal inhibitory concentration (IC50) was 23.9 ± 4.76 nM with NCI-H460 (setting [1]) and 17.9 ± 5.9 nM with BxPC-3 (setting [2]).

For the molecule `CC(C)c1c(/C=c2\[nH]c(=O)/c(=C/c3cccc(C(=O)c4ccc(F)cc4)c3)[nH]c2=O)ncn1CCCN1CCN(C(=O)C2CCCC2)CC1` [PLN-2-37, (3Z,6Z)-3-(3-(p-fluorobenzoyl)phenyl)methylene-6-((5-isopropyl-1-(3-N-cyclopentnecarbonylpiperazinyl)propylimidazol-4-yl)methylene)piperazine-2,5-dione], the IC50 with NCI-H460 (setting [5]) worked out at 7.86 ± 1.37 nM; with BxPC-3 (Homo sapiens, BXPC-3, 72 h) it was 6.23 ± 0.15 nM.

As for `CC(C)c1c(/C=c2\[nH]c(=O)/c(=C/c3cccc(Oc4ccc(F)cc4)c3)[nH]c2=O)ncn1CCCN1CCN(C(=O)OC(C)(C)C)CC1` [PLN-2-17, (3Z,6Z)-3-(3-(4-Fluorophenoxy)phenyl)methylene-6-((5-isopropyl-1-(3-N-tert-butoxycarbonylpiperazinyl)propylimidazol-4-yl)methylene)piperazine-2,5-dione], the IC50 with NCI-H460 (setting [1]) is 41.8 ± 2.27 nM; in the test with BxPC-3 (setting [2]) it was 21.1 ± 2.41 nM.

For the molecule `CC(C)C(=O)N1CCN(CCCn2cnc(/C=c3\[nH]c(=O)/c(=C/c4cccc(C(=O)c5ccc(F)cc5)c4)[nH]c3=O)c2C(C)C)CC1` [PLN-2-32, (3Z,6Z)-3-(3-(p-fluorobenzoyl)phenyl)methylene-6-((5-isopropyl-1-(3-N-isobutyrylpiperazinyl)propylimidazol-4-yl)methylene)piperazine-2,5-dione], the results for the IC50 in the test on NCI-H460 (setting [1]) and with BxPC-3 (setting [2]) were 7.95 ± 1.29 nM and 4.16 ± 0.78 nM, respectively.

For `CC(C)c1c(/C=c2\[nH]c(=O)/c(=C/c3cccc(C(=O)c4ccc(F)cc4)c3)[nH]c2=O)ncn1CCCN1CCN(C(=O)NC2CCCCC2)CC1` [PLN-2-47, (3Z,6Z)-3-(3-(p-fluorobenzoyl)phenyl)methylene-6-((5-isopropyl-1-(3-N-cyclohexylaminocarbonylpiperazinyl)propylimidazol-4-yl)methylene)piperazine-2,5-dione], the IC50 was 6.56 ± 0.32 nM in the test on NCI-H460 (setting [1]) and 3.62 ± 0.48 nM in the test on BxPC-3 (setting [2]).

Take `CC(C)c1c(/C=c2\[nH]c(=O)/c(=C/c3cccc(C(=O)c4ccc(F)cc4)c3)[nH]c2=O)ncn1CCCN1CCN(C=O)CC1` [PLN-2-29, (3Z,6Z)-3-(3-(p-fluorobenzoyl)phenyl)methylene-6-((5-isopropyl-1-(3-N-formylpiperazinyl)propylimidazol-4-yl)methylene)piperazine-2,5-dione]: the half-maximal inhibitory concentration (IC50) with NCI-H460 (setting [1]) was found to be 3.46 ± 0.25 nM; with BxPC-3 (setting [2]) it was 1.4 ± 0.04 nM.

(Values after patent US20240140941A1, “DERIVATIVE OF 2,5-DIKETOPIPERAZINE COMPOUND, AND PREPARATION METHOD THEREFOR, PHARMACEUTICAL COMPOSITION THEREOF AND USE THEREOF” (DALIAN WZ PROBIOTICS AD HEALTH CO., LTD, priority 2020, published 2024).)
